Measured values from US8741886B2, “Baclofen and acamprosate based therapy of neurological disorders” (Pharnext, priority 2011, dated 2014).

Assays:
[1] = tested on: Human brain microvascular endothelial cerebral cells (HBMEC); assay: Toxicity of human Aβ1-42 peptide on HBMEC: total length of capillary network; assay type: cell-based; settings: Aβ1-42 2.5 μM; single drugs at the concentrations used in the combination
Procedure: Human brain microvascular endothelial cell cultures were used to study the protection afforded by candidate compound(s) on Aβ1-42 toxicity.
Human brain microvascular endothelial cerebral cells (HBMEC, ScienCell Ref: 1000, frozen at passage 10) were rapidly thawed in a waterbath at +37° C. The supernatant was immediately put in 9 ml Dulbecco's modified Eagle's medium (DMEM; Pan Biotech ref: P04-03600) containing 10% of foetal calf serum (FCS; GIBCO ref 10270-106). […]
• Negative Control: medium alone+0.1% DMSO • Intoxication: amyloid-β1-42 (2.5 μM) for 18 h • Positive control: VEGF-165 (10 nM) (1 reference compound/culture) 1 hr before the Aβ1-42 (2.5 μM) addition for a 18 h incubation time. • Test compounds: Test compound(s) 1 hr before the Aβ1-42 (2.5 μM) addition for a 18 h incubation time. Capillary Network Quantification
Per well, 2 pictures with 4× lens were taken using InCell Analyzer™ 1000 (GE Healthcare) in light transmission. […] The total length of capillary network was assessed.
Data were expressed in percentage of control conditions (no intoxication, no amyloid=100%) in order to express the amyloid injury. All values were expressed as mean+/−SEM (s.e.mean) of the 3 cultures (n=6 wells per condition). […]

[2] = tested on: rat primary cortical cells; assay: Toxicity of human Aβ1-42 peptide on primary cortical neuron cells: LDH release; assay type: cell-based; settings: for effect on Aβ1-42 intoxication, LDH release (in words): Aβ1-42 10 μM, single drugs at the concentrations used in the combination
Procedure: Rat cortical neurons were cultured as described by Singer et al. (47). Briefly pregnant female rats of 15 days gestation were killed by cervical dislocation (Rats Wistar) and the foetuses were removed from the uterus. The cortex was removed and placed in ice-cold medium of Leibovitz (L15) containing 2% of Penicillin 10.000 U/ml and Streptomycin 10 mg/ml and 1% of bovine serum albumin (BSA). Cortexes were dissociated by trypsin for 20 min at 37° C. (0.05%). The reaction was stopped by the addition of Dulbecco's modified Eagle's medium (DMEM) containing DNasel grade II and 10% of foetal calf serum (FCS). Cells were then mechanically dissociated by 3 serial passages through a 10 ml pipette and centrifuged at 515×g for 10 min at +4° C. The supernatant was discarded and the pellet of cells was re-suspended in a defined culture medium consisting of Neurobasal supplemented with B27 (2%), L-glutamine (0.2 mM), 2% of PS solution and 10 ng/ml of BDNF. Viable cells were counted in a Neubauer cytometer using the trypan blue exclusion test. The cells were seeded at a density of 30 000 cells/well in 96 well-plates (wells were pre-coated with poly-L-lysine (10 μg/ml)) and were cultured at +37° C. in a humidified air (95%)/CO2 (5%) atmosphere.
Briefly, Aβ1-42 peptide was reconstituted in define culture medium at 40 μM (mother solution) and was slowly shaken at +37° C. for 3 days in dark. The control medium was prepared in the same conditions.
After 10 days of neuron culture, test compounds were solved in culture medium (+0.1% DMSO) and then pre-incubated with neurons for 1 hour before the Aβ1-42 application (in a final volume per culture well of 100 μl). One hour after test compound(s) incubation, 100 μl of Aβ1-42 peptide was added to a final concentration of 10 μM diluted in presence of drug(s), in order to avoid further test compound(s) dilutions. Cortical neurons were intoxicated for 24 hours. Three separate cultures were performed per condition, 6 wells per condition.
BDNF (50 ng/ml) and Estradiol-β (150 nM) were used as positive control and reference compounds respectively. Three separate cultures will be performed per condition, 12 wells per condition.
Estradiol-β at 150 nM was used as a positive control (FIG. 4).
Estradiol-β was solved in culture medium and pre-incubated for 1 h before the amyloid-β1-42 application.
The following conditions were assessed: • CONTROL PLAQUE: 12 wells/condition • Negative Control: medium alone+0.1% DMSO • Intoxication: amyloid-β1-42 (10 μM) for 24 h • Reference compound: Estradiol (150 nM) 1 hr. • DRUG PLATE: 6 wells/condition • Negative Control: medium alone+0.1% DMSO • Intoxication: amyloid-β1-42 (10 μM) for 24 h • Test compound(s): test compound(s)—1 hr followed by amyloid-β1-42 (10 μM) for 24 h Lactate Dehydrogenase (LDH) Activity Assay
24 hours after intoxication, the supernatant was taken off and analyzed with Cytotoxicity Detection Kit (LDH, Roche Applied Science, ref: 11644793001, batch: 11800300). This colorimetric assay for the quantification of cell toxicity is based on the measurement of lactate dehydrogenase (LDH) activity released from the cytosol of dying cells into the supernatant.
Data were expressed in percentage of control conditions (no intoxication, no amyloid=100%) in order to express the amyloid injury. All values were expressed as mean+/−SEM (s.e.mean) of the 3 cultures (n=6 wells per condition). Statistic analyses were done on the different conditions (ONE-WAY ANOVA followed by the Dunnett's test when it was allowed, Statview software version 5.0).

[3] = tested on: mice injected i.c.v. with Aβ25-35 peptide; assay: Spontaneous alternation, Y-maze test, after i.c.v. Aβ25-35; assay type: in vivo; settings: drugs alone: Donepezil 0.25 mg/kg/day, Acamprosate 32 μg/kg/day, Baclofen 480 μg/kg/day
Description: The Y-maze is made of grey polyvinylchloride. Each arm is 40 cm long, 13 cm high, 3 cm wide at the bottom, 10 cm wide at the top, and converging at an equal angle. […] An alternation is defined as entries into all three arms on consecutive occasions.

Structure (SMILES): NCC(CC(=O)O)c1ccc(Cl)cc1 (stereo not shown) [Baclofen]
- effect on Aβ1-42 intoxication, total length of capillary network (in words) [1]: no significant effect
- effect on Aβ1-42 intoxication, LDH release (in words) [2]: no significant effect
- effect on percentage of alternation (Y-maze), low doses (in words) [3]: no significant effect

Structure (SMILES): CC(=O)NCCCS(=O)(=O)O [Acamprosate]
- effect on Aβ1-42 intoxication, total length of capillary network (in words) [1]: no significant effect
- prevention of Aβ1-42 intoxication by pre-treatment ([2]; 8 nM): 99%
- effect on Aβ1-42 intoxication, LDH release (in words) [2]: no significant effect
- effect on percentage of alternation (Y-maze), low doses (in words) [3]: no significant effect
